Earlier results as cited in US20230048872A1, “COMPOSITIONS AND METHODS FOR DIAGNOSING OR TREATING NEUTROPHIL-MEDIATED INFLAMMATORY DISEASE” (THE BOARD OF TRUSTEES OF THE UNIVERSITY OF ILLINOIS, priority 2013, published 2023).

solubility in water: low
Structure (SMILES): Oc1cc(O)cc(/C=C/c2ccc(O)c(O)c2)c1 [Piceatannol, piceatannol]
